This test relates to Plasmopara viticola. The test is described as follows: Fungicidal effectiveness against Peronospora (Plasmopara viticola) in preventive leaf application on vines. Format: in vivo. The following applies: 168 h, read-out: Effectiveness expressed as leaf diffusion control % of the disease with respect to a non-treated reference. The method, then:
Determination of the Fungicidal Effectiveness Against Peronospora (Plasmapara viticola) of Compounds Having Formula (I) and (II) in Preventive Leaf Application
Cultivar Dolcetto vine leaves, grown in vases in a conditioned environment (20±1° C.), 70% relative humidity), are treated by spraying both sides of the leaves with compounds 1-7 dispersed in a hydroacetone solution at 20% by volume of acetone.
After remaining 24 hours in a conditioned environment, the plants are sprayed on both sides of the leaf with an aqueous suspension of conidia of Plasmopara viticola (200,000 conidia per cm^3).
The plants are kept in a humidity saturated environment, at 21° C., for the incubation period of the fungus and, at the end of this period (7 days), the fungicidal activity is evaluated according to an evaluation percentage scale from 100 (healthy plant) to 0 (completely infected plant).

[1] abbreviates: Dose 0.45 g/hl, preventive leaf application on Dolcetto vines, inoculation 24 hours after treatment, evaluation after 7 days, scale 100 (healthy plant) to 0 (completely infected plant).
Where [2] appears, read: Dose 1.8 g/hl, preventive leaf application on Dolcetto vines, inoculation 24 hours after treatment, evaluation after 7 days, scale 100 (healthy plant) to 0 (completely infected plant).
The mark [3] stands for this setting: Dose 7.5 g/hl, preventive leaf application on Dolcetto vines, inoculation 24 hours after treatment, evaluation after 7 days, scale 100 (healthy plant) to 0 (completely infected plant).
[4] abbreviates: Dose 30 g/hl, preventive leaf application on Dolcetto vines, inoculation 24 hours after treatment, evaluation after 7 days, scale 100 (healthy plant) to 0 (completely infected plant).

Like-named read-outs stand apart in the source and are kept apart here.

With `COC(=O)CC(NC(=O)[C@@H](NC(=O)OC(C)C)C(C)C)c1ccc(Cl)cc1` (mixture of isomers) [Compound 1, methyl (±)RS-[3-(N-isopropoxy-carbonyl-S-valinyl)amino]-3-(4-chlorophenyl)propanoate], under setting [1], the pest or weed control at 0.45 g/hl was determined as 80%. Further, the pest or weed control at 1.8 g/hl under setting [2] was determined as 100%. Also, the pest or weed control at 7.5 g/hl under setting [3] is 100%. Moreover, the pest or weed control at 30 g/hl under setting [4] amounted to 100%.

For `COC(=O)C[C@@H](NC(=O)[C@@H](NC(=O)OC(C)C)C(C)C)c1ccc(Cl)cc1` (racemic) [Compound 2, methyl (±)R-[3-(N-isopropoxycarbonyl-S-valinyl)amino]-3-(4-chlorophenyl)propanoate], under setting [1], the pest or weed control at 0.45 g/hl is 100%. For the same compound, under setting [2], the pest or weed control at 1.8 g/hl was determined as 100%. For the same compound, under setting [3], the pest or weed control at 7.5 g/hl is 100%. Besides, the pest or weed control at 30 g/hl under setting [4] is 100%.

Take `COC(=O)CC(NC(=O)[C@@H](NC(=O)OC(C)C)C(C)C)c1nc2ccccc2s1` (mixture of isomers) [Compound 8, methyl (±)RS-[3-(N-isopropoxycarbonyl-S-valinyl)amino]-3-(benzothiazol-2-yl)propanoate]: the pest or weed control at 0.45 g/hl under setting [1] came out at 70%. For the same compound, the pest or weed control at 1.8 g/hl under setting [2] is 92%. For the same compound, under setting [3], the pest or weed control at 7.5 g/hl was 100%. Besides, the pest or weed control at 30 g/hl under setting [4] was determined as 100%.

`COC(=O)CC(NC(=O)[C@@H](NC(=O)OC(C)C)C(C)C)c1nc2cc(Cl)ccc2s1` (mixture of isomers) [Compound 9, methyl (±)RS-[3-(N-isopropoxycarbonyl-S-valinyl)amino]-3-(5-chlorobenzothiazol-2-yl)propanoate]: the pest or weed control at 0.45 g/hl under setting [1] amounted to 90%. The pest or weed control at 1.8 g/hl under setting [2] is 100%. The pest or weed control at 7.5 g/hl under setting [3] was found to be 100%. Under setting [4], the pest or weed control at 30 g/hl was 100%.

Turning to `COC(=O)C[C@H](NC(=O)[C@@H](NC(=O)OC(C)C)C(C)C)c1ccc(Cl)cc1` [Compound 3, methyl (−)S-[3-(N-isopropoxycarbonyl-S-valinyl)amino]-3-(4-chlorophenyl)propanoate], the pest or weed control at 0.45 g/hl under setting [1] was 65%. Besides, the pest or weed control at 1.8 g/hl under setting [2] came to 85%. Also, under setting [3], the pest or weed control at 7.5 g/hl stood at 100%. For the same compound, the pest or weed control at 30 g/hl under setting [4] turned out to be 100%.

For `COC(=O)CC(NC(=O)[C@@H](NC(=O)OC(C)C)C(C)C)c1ccc(C)cc1` (stereo partly shown) [Compound 4, methyl RS-[3-(N-isopropoxycarbonyl-S-valinyl)amino]-3-(4-methylphenyl)propanoate], the pest or weed control at 0.45 g/hl under setting [1] amounted to 75%. For the same compound, under setting [2], the pest or weed control at 1.8 g/hl stood at 100%. For the same compound, the pest or weed control at 7.5 g/hl under setting [3] was 100%. For the same compound, the pest or weed control at 30 g/hl under setting [4] was 100%.

As for `CCc1ccc(C(CC(=O)OC)NC(=O)[C@@H](NC(=O)Oc2ccccc2)C(C)C)cc1` (stereo partly shown) [Compound 5, methyl RS-[3-(N-phenoxycarbonyl-S-valinyl)amino]-3-(4-ethylphenyl)propanoate], the pest or weed control at 0.45 g/hl stood at 70%, the pest or weed control at 1.8 g/hl amounted to 90%, the pest or weed control at 7.5 g/hl stood at 100% and the pest or weed control at 30 g/hl worked out at 100%.

With `COC(=O)CC(NC(=O)[C@@H](NC(=O)OC(C)C)C(C)C)c1ccc(OC)cc1` (stereo partly shown) [Compound 6, methyl RS-[3-(N-isopropoxycarbonyl-S-valinyl)amino]-3-(4-methoxyphenyl)propanoate], under setting [1], the pest or weed control at 0.45 g/hl was 65%. Moreover, the pest or weed control at 1.8 g/hl under setting [2] is 92%. Besides, the pest or weed control at 7.5 g/hl under setting [3] worked out at 100%. For the same compound, the pest or weed control at 30 g/hl under setting [4] amounted to 100%.

As for `COC(=O)CC(NC(=O)[C@@H](NC(=O)OC(C)C)C(C)C)c1ccc(C#N)cc1` (stereo partly shown) [Compound 7, methyl RS-[3-(N-isopropoxycarbonyl-S-valinyl)amino]-3-(4-cyanophenyl)propanoate], under setting [1], the pest or weed control at 0.45 g/hl amounted to 67%. Further, the pest or weed control at 1.8 g/hl under setting [2] is 90%. For the same compound, the pest or weed control at 30 g/hl under setting [4] came to 100%.

Consider `COC(=O)CC(NC(=O)[C@@H](NC(=O)OC(C)(C)C)C(C)C)c1ccccc1` (stereo partly shown) [Reference 1, reference compound], for which the pest or weed control at 0.45 g/hl under setting [1] amounted to 0%. For the same compound, under setting [2], the pest or weed control at 1.8 g/hl worked out at 20%. The pest or weed control at 7.5 g/hl under setting [3] was 90%. Further, the pest or weed control at 30 g/hl under setting [4] is 100%.

In the case of `COC(=O)CC(NC(=O)[C@@H](NC(=O)OC(C)(C)C)C(C)C)c1ccc(Cl)cc1` (stereo partly shown) [Reference 2, reference compound], the pest or weed control at 0.45 g/hl under setting [1] turned out to be 30%. In addition, the pest or weed control at 1.8 g/hl under setting [2] came out at 65%. For the same compound, the pest or weed control at 7.5 g/hl under setting [3] amounted to 88%. Further, under setting [4], the pest or weed control at 30 g/hl worked out at 100%.

Turning to `COC(=O)CC(NC(=O)[C@@H](NC(=O)OC(C)C)C(C)C)c1ccccc1` (stereo partly shown) [Reference 3, reference compound], under setting [1], the pest or weed control at 0.45 g/hl turned out to be 10%. Besides, under setting [2], the pest or weed control at 1.8 g/hl was 55%. Besides, the pest or weed control at 7.5 g/hl under setting [3] was found to be 91%. In addition, the pest or weed control at 30 g/hl under setting [4] was found to be 100%.

Turning to `COC(=O)C(C)(C)C(NC(=O)[C@@H](NC(=O)OC(C)C)C(C)C)c1ccccc1` (stereo partly shown) [Reference 4, reference compound], the pest or weed control at 0.45 g/hl under setting [1] turned out to be 15%. For the same compound, under setting [2], the pest or weed control at 1.8 g/hl is 55%. For the same compound, under setting [3], the pest or weed control at 7.5 g/hl worked out at 75%. Besides, the pest or weed control at 30 g/hl under setting [4] amounted to 90%.

With `CC(C)OC(=O)CC(NC(=O)[C@@H](NC(=O)OC(C)C)C(C)C)c1ccccc1` (stereo partly shown) [Reference 5, reference compound], under setting [1], the pest or weed control at 0.45 g/hl came out at 0%. Further, the pest or weed control at 1.8 g/hl under setting [2] stood at 15%. In addition, the pest or weed control at 7.5 g/hl under setting [3] worked out at 75%. Further, under setting [4], the pest or weed control at 30 g/hl turned out to be 96%.
